In PubChem BioAssay (NCI):
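Method: 48-hour compound exposure of cells in 96-well plates, five concentrations, linear interpolation of endpoints. TGI: concentration producing complete growth inhibition.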

Assays:
Experiment in all cases: NCI tumour cell line growth inhibition, 48 h
[1] = test system: SR leukemia
[2] = test system: UACC-257 melanoma
[3] = test system: DMS 114 small cell lung
[4] = test system: RXF 393 renal
[5] = test system: DMS 273 small cell lung
[6] = test system: MALME-3M melanoma
[7] = test system: RXF-631 renal
[8] = test system: SNB-19 CNS
[9] = test system: A549 NSCLC
[10] = test system: MOLT-4 leukemia
[11] = test system: OVCAR-4 ovarian
[12] = test system: UO-31 renal
[13] = test system: EKVX NSCLC
[14] = test system: SK-MEL-2 melanoma
[15] = test system: SN12C renal
[16] = test system: HCC-2998 colon
[17] = test system: K-562 leukemia
[18] = test system: UACC-62 melanoma
[19] = test system: 786-0 renal
[20] = test system: ACHN renal
[21] = test system: M19-MEL melanoma
[22] = test system: SNB-75 CNS
[23] = test system: DLD-1 colon
[24] = test system: SNB-78 CNS
[25] = test system: COLO 205 colon
[26] = test system: SK-OV-3 ovarian
[27] = test system: OVCAR-5 ovarian
[28] = test system: HOP-92 NSCLC
[29] = test system: TK-10 renal
[30] = test system: XF 498 CNS
[31] = test system: RPMI-8226 leukemia
[32] = test system: HT29 colon
[33] = test system: OVCAR-8 ovarian
[34] = test system: SW-620 colon
[35] = test system: LOX IMVI melanoma
[36] = test system: U251 CNS
[37] = test system: KM12 colon
[38] = test system: HCT-116 colon
[39] = test system: HOP-62 NSCLC
[40] = test system: SF-268 CNS
[41] = test system: CCRF-CEM leukemia
[42] = test system: M14 melanoma
[43] = test system: SF-295 CNS
[44] = test system: IGROV1 ovarian
[45] = test system: SK-MEL-5 melanoma
[46] = test system: HCT-15 colon
[47] = test system: CAKI-1 renal
[48] = test system: SK-MEL-28 melanoma
[49] = test system: OVCAR-3 ovarian
[50] = test system: HL-60(TB) leukemia
[51] = test system: NCI-H23 lung
[52] = test system: A498 renal
[53] = test system: HOP-18 NSCLC
[54] = test system: NCI-H522 lung
[55] = test system: NCI-H460 lung
[56] = test system: SF-539 CNS
[57] = test system: KM20L2 colon
[58] = test system: NCI-H226 lung
[59] = test system: NCI/ADR-RES ovarian
[60] = test system: MCF7 breast
[61] = test system: SN12K1 renal
[62] = test system: P388 leukemia
[63] = test system: P388/ADR leukemia

Structure (SMILES): O=C(CCC(=O)Nc1ccccc1C(F)(F)F)N/N=C1\C(=N\NC(=O)CCC(=O)Nc2ccccc2C(F)(F)F)C(c2ccc3c(c2)OCO3)Oc2ccccc21 (centres undefined)
- TGI [1]: > 100 µM
- TGI [2]: > 100 µM
- TGI [3]: > 22.3 µM
- TGI [4]: > 71.7 µM
- TGI [5]: > 100 µM
- TGI [6]: > 100 µM
- TGI [7]: > 100 µM
- TGI [8]: > 100 µM
- TGI [9]: > 100 µM
- TGI [10]: > 100 µM
- TGI [11]: > 85.4 µM
- TGI [12]: > 100 µM
- TGI [13]: > 100 µM
- TGI [14]: > 100 µM
- TGI [15]: > 100 µM
- TGI [16]: > 100 µM
- TGI [17]: > 100 µM
- TGI [18]: > 100 µM
- TGI [19]: > 100 µM
- TGI [20]: > 100 µM
- TGI [21]: > 100 µM
- TGI [22]: 43.2 µM
- TGI [23]: > 100 µM
- TGI [24]: > 100 µM
- TGI [25]: > 100 µM
- TGI [26]: > 82.5 µM
- TGI [27]: > 100 µM
- TGI [28]: > 87.1 µM
- TGI [29]: > 100 µM
- TGI [30]: > 87.6 µM
- TGI [31]: > 100 µM
- TGI [32]: > 100 µM
- TGI [33]: > 100 µM
- TGI [34]: > 100 µM
- TGI [35]: > 100 µM
- TGI [36]: 68.5 µM
- TGI [37]: > 100 µM
- TGI [38]: > 100 µM
- TGI [39]: 56.3 µM
- TGI [40]: 18.9 µM
- TGI [41]: 66.3 µM
- TGI [42]: > 100 µM
- TGI [43]: > 100 µM
- TGI [44]: > 100 µM
- TGI [45]: > 100 µM
- TGI [46]: > 100 µM
- TGI [47]: 98 µM
- TGI [48]: > 100 µM
- TGI [49]: > 100 µM
- TGI [50]: > 100 µM
- TGI [51]: > 100 µM
- TGI [52]: > 100 µM
- TGI [53]: > 100 µM
- TGI [54]: > 72.8 µM
- TGI [55]: > 100 µM
- TGI [56]: 54.6 µM
- TGI [57]: > 100 µM
- TGI [58]: > 100 µM

Structure (SMILES): CC1(CO)C(O)CCC2(C)C1CCC1CC3CC12CCC3(O)CO (centres undefined)
- TGI [2]: > 100 µM
- TGI [3]: > 100 µM
- TGI [4]: > 100 µM
- TGI [5]: > 100 µM
- TGI [6]: > 100 µM
- TGI [8]: > 100 µM
- TGI [9]: > 100 µM
- TGI [10]: > 100 µM
- TGI [11]: > 100 µM
- TGI [59]: > 100 µM
- TGI [12]: 98.8 µM
- TGI [13]: > 100 µM
- TGI [14]: > 100 µM
- TGI [15]: > 100 µM
- TGI [16]: > 100 µM
- TGI [17]: > 100 µM
- TGI [18]: > 100 µM
- TGI [60]: > 100 µM
- TGI [61]: > 100 µM
- TGI [62]: 6.66 µM
- TGI [21]: > 100 µM
- TGI [22]: > 100 µM
- TGI [23]: > 100 µM
- TGI [24]: > 100 µM
- TGI [63]: 12.6 µM
- TGI [25]: > 100 µM
- TGI [26]: > 100 µM
- TGI [27]: > 100 µM
- TGI [28]: > 100 µM
- TGI [30]: > 100 µM
- TGI [31]: > 100 µM
- TGI [32]: > 100 µM
- TGI [33]: > 100 µM
- TGI [34]: > 100 µM
- TGI [35]: > 100 µM
- TGI [36]: > 100 µM
- TGI [37]: > 100 µM
- TGI [38]: > 100 µM
- TGI [40]: > 100 µM
- TGI [41]: > 100 µM
- TGI [43]: > 100 µM
- TGI [44]: > 100 µM
- TGI [45]: > 100 µM
- TGI [46]: > 100 µM
- TGI [47]: > 100 µM
- TGI [48]: > 100 µM
- TGI [49]: > 100 µM
- TGI [50]: > 100 µM
- TGI [51]: > 100 µM
- TGI [52]: 99 µM
- TGI [53]: > 100 µM
- TGI [54]: > 100 µM
- TGI [55]: > 100 µM
- TGI [56]: > 44.5 µM
- TGI [57]: > 100 µM
- TGI [58]: > 89.8 µM
